Assay: HILIC, Merck SeQuant ZIC-HILIC, 100 × 2.1 mm, 3.5 µm, 25 °C, 0.3 mL/min, estimated dead time 0.73 min; A: water + 0.1% formic acid, pH 3; B: acetonitrile + 0.1% formic acid, pH 3; gradient (min/%B) 0/95 1.5/95 13.5/40 15.5/40 29.7/25 33.5/25 34.5/95 41.5/95
Conditions: stereoisomer not certain

| LC retention time | SMILES |
| --- | --- |
| 8.16 min | CC(=O)NC(Cc1cnc[nH]1)C(=O)O (stereo not given) [N,N-Acetylhistidine] |
| 4.31 min | CC(=O)N[C@@H](CC(=O)O)C(=O)O [N-Acetyl-L-aspartic acid] |
| 8.65 min | CC(=O)NC(CCCN)C(=O)O (stereo not given) [N-Acetyl-ornithine] |
| 8.35 min | CC(=O)NC(CCC[NH+]=C(N)N)C(=O)[O-] (stereo not given) [N-Acetylarginine] |
| 7.06 min | CC(=O)NC1C(O)CC(O)(C(=O)O)OC1C(O)C(O)CO (stereo not given) [N-Acetylneuraminic acid] |
| 8.42 min | CC(=O)NC(CCCC[NH3+])C(=O)[O-] (stereo not drawn) [N-Alpha-acetyllysine] |
| 1.34 min | O=C(O)CNC(=O)C=Cc1ccccc1 [N-Cinnamoylglycine] |
| 2.26 min | CNC(=O)c1cccnc1 [N-Methylnicotinamide] |
| 2.03 min | CC(=O)NCCc1c[nH]c2ccc(O)cc12 [N-acetyl-5-hydroxytryptamine] |
| 3.71 min | CC(=O)NC(CCC(=O)O)C(=O)O (stereo not given) [N-acetylglutamate] |
| 1.58 min | CC(=O)NC(Cc1ccccc1)C(=O)O (stereo not given) [N-acetylphenylalanine] |
| 1.85 min | CSCCC(NC=O)C(=O)O (stereo not given) [N-formylmethionine] |
| 7.39 min | CN[C@H](CC(=O)O)C(=O)O [N-methyl-D-aspartic acid] |
| 6.1 min | NC(Cc1ccc(O)c([N+](=O)[O-])c1)C(=O)O (stereo not given) [Nitrotyrosine] |
| 7.85 min | CCC(NC(=O)CCC(N)C(=O)O)C(=O)NCC(=O)O (stereo not given) [Ophthalmic acid] |
| 12.5 min | NCCCC(N)C(=O)O (stereo not given) [Ornithine] |
| 2.31 min | CC(C)(CO)C(O)C(=O)NCCC(=O)O (stereo not given) [Pantothenic acid] |
| 5.8 min | CC(C)CC(NC(=O)C(C)NC(=O)C(N)Cc1ccccc1)C(=O)O (stereo not drawn) [Phe-Ala-Leu] |

| LC retention time | SMILES |
| --- | --- |
| 7.49 min | CC(NC(=O)C(N)Cc1ccccc1)C(=O)NC(CO)C(=O)O (stereo not drawn) [Phe-Ala-Ser] |
| 2.63 min | NC(=O)CCC(NC(=O)Cc1ccccc1)C(=O)O (stereo not given) [Phenylacetylglutamine] |
| 5.5 min | C[N+](C)(C)[C@@H](Cc1ccccc1)C(=O)[O-] [Phenylalanine betaine] |
| 6.41 min | NC(C(=O)O)c1ccccc1 (stereo not given) [Phenylglycine] |
| 2.12 min | O=C(O)c1ccccc1C(=O)O [Phthalic acid] |
| 4.32 min | O=C(O)CNC(=O)C1CCC(=O)N1 (stereo not given) [Pyroglutamylglycine] |
| 1.24 min | O=C(O)c1ccc2ccccc2n1 [Quinaldic acid] |
| 10.1 min | NC(CCCCNC(CCC(=O)O)C(=O)O)C(=O)O (stereo not given) [Saccharopine] |
| 6.57 min | CC(C)(C)NCC(O)c1ccc(O)c(CO)c1 (stereo not given) [Salbutamol] |
| 5.65 min | C[N+](C)(C)C(Cc1c[nH]c2ccccc12)C(=O)[O-] (stereo not given) [Tryptophan betaine] |
| 5.99 min | CC(C)C(C(=O)O)[N+](C)(C)C (stereo not given) [Valine betaine] |
| 7.57 min | NC(CCC(=O)O)C(=O)NC(Cc1ccc(O)cc1)C(=O)O (stereo not given) [a-glutamyl-tyrosine] |
| 4.23 min | O=C(O)C=C(CC(=O)O)C(=O)O [cis-aconitate] |
| 2.09 min | Nc1cccc(C(=O)O)c1 [m-Aminobenzoic acid] |
| 1.44 min | O=C(O)CNC(=O)c1ccccc1O [o-Hydroxyhippuric acid] |
| 1.53 min | Nc1ccc(C(=O)O)cc1 [p-Aminobenzoic acid] |
| 1.39 min | COc1cc(/C=C/C(=O)O)ccc1O [trans-Ferulic acid] |

More lines, now with the values behind:

| SMILES | LC retention time |
| --- | --- |
| CC(=O)N[C@H]1C(O)O[C@H](CO)[C@@H](O)[C@@H]1O (stereo partly drawn) [N-Acetyl-D-glucosamine] | 6.24 min |
| CN1CCC[C@H]1C(=O)O [N-Methyl-L-proline] | 7.26 min |
| CC(=O)NCCCCN [N-acetylputrescine] | 8.56 min |
| CNCCc1cnc[nH]1 [Na-methylhistamine] | 15.2 min |
| NCC(O)c1ccc(O)c(O)c1 (stereo not given) [Noradrenaline] | 9.31 min |
| CCCC(C(=O)[O-])[N+](C)(C)C (stereo not given) [Norvaline betaine] | 6.15 min |
| NCC(O)c1ccc(O)cc1 (stereo not given) [Octopamine] | 7.57 min |
| O=S(=O)(O)CCN1CCN(CCS(=O)(=O)O)CC1 [PIPES] | 9.12 min |
| CN(CC(=O)O)C(N)=NP(=O)(O)O [Phosphocreatine] | 7.7 min |
| C=C(OP(=O)(O)O)C(=O)[O-] [Phosphoenol pyruvate] | 6.22 min |
| O=C(C=CC=Cc1ccc2c(c1)OCO2)N1CCCCC1 [Piperine] | 0.94 min |
| O=C(NCC(=O)N1CCCC1C(=O)O)C1CCCN1 (stereo not given) [Proline-glycine-proline] | 7.66 min |
| O=C(O)CNC(=O)C1CCCN1 (stereo not given) [Proline-glycine] | 7.71 min |
| O=C(O)C1CC(O)CN1C(=O)C1CCCN1 (stereo not given) [Proline-hydroxyproline] | 8.4 min |
| CCC(=O)OC(CC(=O)[O-])C[N+](C)(C)C (stereo not given) [Propionylcarnitine] | 4.5 min |
| CN1CCCN=C1C=Cc1cccs1 [Pyrantel] | 2.3 min |
| Cc1ncc(CO)c(C=O)c1O [Pyridoxal] | 4.94 min |
| Cc1ncc(CO)c(CN)c1O [Pyridoxamine] | 13.1 min |
| Cc1ncc(CO)c(CO)c1O [Pyridoxine] | 7.08 min |
| C1CCNC1 [Pyrrolidine] | 7.71 min |

| SMILES | LC retention time |
| --- | --- |
| OCC1OC(O)C(O)C1O (stereo not given) [Ribose] | 5 min |
| Nc1ncnc2c1ncn2C1OC(CSCCC([NH3+])C(=O)[O-])C(O)C1O (stereo not given) [S-adenosylhomocysteine] | 10.1 min |
| CNCC(=O)O [Sarcosine] | 7.67 min |
| CC(O)C(=O)C1=Nc2c(nc(N)[nH]c2=O)NC1 (stereo not given) [Sepiapterin] | 4.63 min |
| NCCc1c[nH]c2ccc(O)cc12 [Serotonin] | 7.73 min |
| OCC1OC(OC2(CO)OC(CO)C(O)C2O)C(O)C(O)C1O (stereo not given) [Sucrose] | 7.32 min |
| NCCS(=O)(=O)O [Taurine] | 7.44 min |
| CC(CCC(=O)NCCS(=O)(=O)O)C1CCC2C3C(O)CC4CC(O)CCC4(C)C3CC(O)C12C (stereo not given) [Taurocholic acid] | 4.75 min |
| O=c1cc[nH]c(=S)[nH]1 [Thiouracil] | 1.93 min |
| Cc1cn(C2CC(O)C(CO)O2)c(=O)[nH]c1=O (stereo not given) [Thymidine] | 2.58 min |
| C[n+]1cccc(C(=O)[O-])c1 [Trigonelline] | 7.26 min |
| C[N+](C)(C)[O-] [Trimethylamine N-oxide] | 6.67 min |
| NCCc1c[nH]c2ccccc12 [Tryptamine] | 6.1 min |
| NCCc1ccc(O)cc1 [Tyramine] | 6.81 min |
| O=c1ccn(C2OC(COP(=O)(O)O)C(O)C2O)c(=O)[nH]1 (stereo not given) [Uridine mono-phosphate] | 6.99 min |
| O=c1ccn(C2OC(CO)C(O)C2O)c(=O)[nH]1 (stereo not given) [Uridine] | 4.98 min |
| O=c1[nH]c(=O)c2ncn(C3OC(CO)C(O)C3O)c2[nH]1 (stereo not given) [Xanthosine] | 5.36 min |
| OC1COC(O)C(O)C1O (stereo not given) [Xylose] | 6.03 min |
| CC(CCC(=O)O)C1CCC2C3C(O)CC4CC(O)CCC4(C)C3CC(O)C12C (stereo not given) [cholic acid] | 1.96 min |
| O=C(O)C=Cc1cnc[nH]1 [cis-urocanic acid] | 5 min |
